ChEMBL document CHEMBL3826945, “Discovery of novel dihydrobenzofuran cyclopropane carboxylic acid based calcium sensing receptor antagonists for the treatment of osteoporosis” (Bioorg Med Chem Lett, 2016)
Activity calls are given as the source filed them. The calls are words filed in the database; no cut-off is given here.

What was measured:
[1] = target: T1, Extracellular calcium-sensing receptor (Homo sapiens, UniProt P41180); assay: Antagonist activity at calcium sensing receptor (unknown origin) by cell based FLIPR assay; format: functional
T1 sequence (P41180 whole entry): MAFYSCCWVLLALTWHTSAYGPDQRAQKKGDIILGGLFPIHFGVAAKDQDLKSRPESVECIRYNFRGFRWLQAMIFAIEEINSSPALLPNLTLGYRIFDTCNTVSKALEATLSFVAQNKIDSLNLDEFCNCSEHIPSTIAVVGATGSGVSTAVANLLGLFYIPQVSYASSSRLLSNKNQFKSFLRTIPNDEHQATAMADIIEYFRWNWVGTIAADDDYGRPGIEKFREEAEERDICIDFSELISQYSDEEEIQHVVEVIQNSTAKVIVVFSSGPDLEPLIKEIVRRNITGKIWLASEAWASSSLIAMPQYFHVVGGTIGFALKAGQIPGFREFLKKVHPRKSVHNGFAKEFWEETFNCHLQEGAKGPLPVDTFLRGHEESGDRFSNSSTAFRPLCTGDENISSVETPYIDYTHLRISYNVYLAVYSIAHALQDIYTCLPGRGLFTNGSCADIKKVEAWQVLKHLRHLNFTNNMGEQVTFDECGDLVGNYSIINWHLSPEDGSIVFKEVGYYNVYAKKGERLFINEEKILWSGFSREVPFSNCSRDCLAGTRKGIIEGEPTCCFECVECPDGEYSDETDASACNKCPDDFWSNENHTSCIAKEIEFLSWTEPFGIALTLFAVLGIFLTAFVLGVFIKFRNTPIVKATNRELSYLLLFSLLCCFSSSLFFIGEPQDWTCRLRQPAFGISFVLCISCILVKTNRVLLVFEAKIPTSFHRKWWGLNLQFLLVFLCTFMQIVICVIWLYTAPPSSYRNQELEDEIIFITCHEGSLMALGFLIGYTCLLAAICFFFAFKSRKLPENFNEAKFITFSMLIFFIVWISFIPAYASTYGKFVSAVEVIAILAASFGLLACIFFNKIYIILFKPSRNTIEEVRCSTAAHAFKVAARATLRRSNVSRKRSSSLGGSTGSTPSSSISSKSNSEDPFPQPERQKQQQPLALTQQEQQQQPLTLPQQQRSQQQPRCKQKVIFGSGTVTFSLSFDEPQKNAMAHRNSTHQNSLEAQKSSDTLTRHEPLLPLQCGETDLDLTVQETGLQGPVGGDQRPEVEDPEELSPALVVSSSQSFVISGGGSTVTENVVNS

[2] = Clearance in Sprague-Dawley rat plasma at 2 mg/kg, iv or 5 mg/kg, po; format: ADME, organism-based
[3] = Oral bioavailability in Sprague-Dawley rat at 5 mg/kg; format: ADME, organism-based; conditions: in vivo
[4] = Cmax in Sprague-Dawley rat at 2 mg/kg, iv or 5 mg/kg, po; format: ADME, organism-based; conditions: in vivo
[5] = Half life in Sprague-Dawley rat at 2 mg/kg, iv or 5 mg/kg, po; format: ADME, organism-based; conditions: in vivo
[6] = system: Rattus norvegicus; assay: Stimulation of parathyroid hormone release in overnight fasted Sprague-Dawley rat serum at 30 mg/kg, po measured after 2 hrs by ELISA; format: functional, organism-based
[7] = Tmax in Sprague-Dawley rat at 2 mg/kg, iv or 5 mg/kg, po; format: ADME, organism-based; conditions: in vivo
[8] = system: Rattus norvegicus; assay: Stimulation of parathyroid hormone release in po dosed overnight fasted Sprague-Dawley rat serum after 7 days by ELISA; format: functional, organism-based
[9] = system: Rattus norvegicus; assay: Stimulation of parathyroid hormone release in overnight fasted Sprague-Dawley rat serum at 30 mg/kg, po measured within 1 hour by ELISA relative to vehicle treated control; format: functional

SMILES | IC50 [1] [nM] | further results
CSc1ccc(CC(C)(C)NC[C@@H](O)CO[C@H](C)c2ccc(C)c3c2[C@@H]2[C@H](O3)[C@H]2C(=O)O)cc1 | 39.3 | –
Cc1ccc(C(C)OC[C@H](O)CNC(C)(C)Cc2ccc3ccccc3c2)c2c1OC1C(C(=O)O)C21 (stereo partly specified) | 64.3 | –
Cc1ccc([C@@H](C)OC[C@H](O)CNC(C)(C)Cc2ccc3sccc3c2)c2c1O[C@@H]1[C@@H](C(=O)O)[C@H]21 | 9.62 | –
Cc1ccc([C@@H](C)OC[C@H](O)CNC(C)(C)CCSc2ccccc2)c2c1O[C@@H]1[C@@H](C(=O)O)[C@H]21 | 50.8 | –
COc1ccc(CC(C)(C)NC[C@@H](O)CO[C@H](C)c2ccc(C)c3c2[C@@H]2[C@H](O3)[C@H]2C(=O)O)c(Cl)c1 | 19.6 | clearance [2]: 41 mL/min/kg; bioavailability [3]: 16.5%; Cmax [4]: 300 nM; half-life [5]: 2.9 h
Cc1ccc(CC(C)(C)NC[C@@H](O)CO[C@H](C)c2ccc(C)c3c2[C@@H]2[C@H](O3)[C@H]2C(=O)O)cc1C | 17.7 | –
Cc1ccc([C@@H](C)OC[C@H](O)CNC(C)(C)Cc2ccc3ncccc3c2)c2c1O[C@@H]1[C@@H](C(=O)O)[C@H]21 | 457 | –
Cc1ccc(C(C)OC[C@H](O)CNC(C)(C)CC2Cc3ccccc3C2)c2c1OC1C(C(=O)O)C21 (stereo partly specified) | 117 | –
Cc1ccc([C@@H](C)OC[C@H](O)CNC(C)(C)Cc2ccc3ccccc3c2)c2c1O[C@@H]1[C@@H](C(=O)O)[C@H]21 | 7.45 | –
CSc1ccc(CC(C)(C)NC[C@@H](O)CO[C@H](C)c2ccc(C)c3c2[C@@H]2[C@H](O3)[C@H]2C(=O)O)cc1F | 27.6 | clearance [2]: 40.2 mL/min/kg; Activity [6]: inactive; Tmax [7]: < 1 h; Activity [8]: Dose-dependent effect; bioavailability [3]: 6.9%; Cmax [4]: 170 nM; half-life [5]: 1.9 h; fold change (FC) [9]: 3
Cc1ccc([C@@H](C)OC[C@H](O)CNC(C)(C)CCCc2ccccc2)c2c1O[C@@H]1[C@@H](C(=O)O)[C@H]21 | 28.4 | –
Cc1ccc(C(C)OC[C@H](O)CNC(C)(C)Cc2ccc(Cl)c(F)c2)c2c1OC1C(C(=O)O)C21 (stereo partly specified) | 203 | –
Cc1ccc([C@@H](C)OC[C@H](O)CNC(C)(C)Cc2ccc3ccccc3c2)c2c1O[C@H]1[C@H](C(=O)O)[C@@H]21 | 21.6 | –
Cc1ccc([C@@H](C)OC[C@H](O)CNC(C)(C)Cc2ccc3c(c2)CCS3(=O)=O)c2c1O[C@@H]1[C@@H](C(=O)O)[C@H]21 | > 10000 | –
